# Experimental data taken from US8741899B2, “(4-chloro-2-fluoro-N-(2-fluorophenyl)-5-[(8aR)-hexahydropyrrolo-[1,2-a]pyrazin-2(1H)-ylcarbonyl]-benzenesulfonamide, and pharmaceutically acceptable salts thereof” (AbbVie Inc., priority 2009, dated 2014).
# Biological target: T1, Human Cav3.2 Channels (Homo sapiens, UniProt O95180)
# T1 construct: expressed in transfected cells
# Experiment: Electrophysiologic (whole-cell patch-clamp) assessment of calcium channel activity in HEK293 cells stably expressing hCav3.2
# Assay type: cell-based
# Settings: −77 mV, geometric mean, read-out: Human Cav3.2 −77 mV IC50 (μM) GeoMean
# Method: (i) In Vitro Methods—Electrophysiologic Assessment of Calcium Channel Activity:
# Patch-clamp recordings were performed using HEK293 cells stably expressing hCav3.2. Cells were plated in T175 flasks and grown at 37° C. and under 5% CO2 to approximately 50% confluency. On the day of the experiment, cells were harvested with Detachin™ cell detachment solution (Genlantis, San Diego, Calif.) and maintained in serum-free culture medium supplemented with 25 mM HEPES up to several hours prior to experiment. Whole-cell patch-clamp recordings were obtained using extracellular saline consisting of (mM): 87.5 CsCl, 40 TEA-Cl, 5 CaCl2, 1 MgCl2, 10 HEPES, 10 glucose. The pH was adjusted to 7.2 with CsOH and the osmolarity was adjusted to approximately 310 mOsm with sucrose. Intracellular solution consisted of (mM): 112 CsCl, 27 CsF, 2 NaCl, 8.2 EGTA, 10 HEPES. Prior to an experiment 4 mM Mg2ATP was added and the pH was adjusted to 7.2 with CsOH with an osmolarity of approximately 290 mOsm. A two-pulse voltage protocol was utilized to assess compound inhibition. First, cells were held with an 8 s pre-pulse at −100 mV prior to a 160 ms test pulse to −30 mV. This was followed by an 8 s pre-pulse at approximately −75 mV prior to a […]. Increasing concentrations of antagonist were applied to individual cells in a multi-addition format with 5 minutes in each test concentration. For each cell, responses were normalized to dimethyl sulfoxide vehicle control to generate concentration-response curves.
# T1 sequence (O95180 whole entry): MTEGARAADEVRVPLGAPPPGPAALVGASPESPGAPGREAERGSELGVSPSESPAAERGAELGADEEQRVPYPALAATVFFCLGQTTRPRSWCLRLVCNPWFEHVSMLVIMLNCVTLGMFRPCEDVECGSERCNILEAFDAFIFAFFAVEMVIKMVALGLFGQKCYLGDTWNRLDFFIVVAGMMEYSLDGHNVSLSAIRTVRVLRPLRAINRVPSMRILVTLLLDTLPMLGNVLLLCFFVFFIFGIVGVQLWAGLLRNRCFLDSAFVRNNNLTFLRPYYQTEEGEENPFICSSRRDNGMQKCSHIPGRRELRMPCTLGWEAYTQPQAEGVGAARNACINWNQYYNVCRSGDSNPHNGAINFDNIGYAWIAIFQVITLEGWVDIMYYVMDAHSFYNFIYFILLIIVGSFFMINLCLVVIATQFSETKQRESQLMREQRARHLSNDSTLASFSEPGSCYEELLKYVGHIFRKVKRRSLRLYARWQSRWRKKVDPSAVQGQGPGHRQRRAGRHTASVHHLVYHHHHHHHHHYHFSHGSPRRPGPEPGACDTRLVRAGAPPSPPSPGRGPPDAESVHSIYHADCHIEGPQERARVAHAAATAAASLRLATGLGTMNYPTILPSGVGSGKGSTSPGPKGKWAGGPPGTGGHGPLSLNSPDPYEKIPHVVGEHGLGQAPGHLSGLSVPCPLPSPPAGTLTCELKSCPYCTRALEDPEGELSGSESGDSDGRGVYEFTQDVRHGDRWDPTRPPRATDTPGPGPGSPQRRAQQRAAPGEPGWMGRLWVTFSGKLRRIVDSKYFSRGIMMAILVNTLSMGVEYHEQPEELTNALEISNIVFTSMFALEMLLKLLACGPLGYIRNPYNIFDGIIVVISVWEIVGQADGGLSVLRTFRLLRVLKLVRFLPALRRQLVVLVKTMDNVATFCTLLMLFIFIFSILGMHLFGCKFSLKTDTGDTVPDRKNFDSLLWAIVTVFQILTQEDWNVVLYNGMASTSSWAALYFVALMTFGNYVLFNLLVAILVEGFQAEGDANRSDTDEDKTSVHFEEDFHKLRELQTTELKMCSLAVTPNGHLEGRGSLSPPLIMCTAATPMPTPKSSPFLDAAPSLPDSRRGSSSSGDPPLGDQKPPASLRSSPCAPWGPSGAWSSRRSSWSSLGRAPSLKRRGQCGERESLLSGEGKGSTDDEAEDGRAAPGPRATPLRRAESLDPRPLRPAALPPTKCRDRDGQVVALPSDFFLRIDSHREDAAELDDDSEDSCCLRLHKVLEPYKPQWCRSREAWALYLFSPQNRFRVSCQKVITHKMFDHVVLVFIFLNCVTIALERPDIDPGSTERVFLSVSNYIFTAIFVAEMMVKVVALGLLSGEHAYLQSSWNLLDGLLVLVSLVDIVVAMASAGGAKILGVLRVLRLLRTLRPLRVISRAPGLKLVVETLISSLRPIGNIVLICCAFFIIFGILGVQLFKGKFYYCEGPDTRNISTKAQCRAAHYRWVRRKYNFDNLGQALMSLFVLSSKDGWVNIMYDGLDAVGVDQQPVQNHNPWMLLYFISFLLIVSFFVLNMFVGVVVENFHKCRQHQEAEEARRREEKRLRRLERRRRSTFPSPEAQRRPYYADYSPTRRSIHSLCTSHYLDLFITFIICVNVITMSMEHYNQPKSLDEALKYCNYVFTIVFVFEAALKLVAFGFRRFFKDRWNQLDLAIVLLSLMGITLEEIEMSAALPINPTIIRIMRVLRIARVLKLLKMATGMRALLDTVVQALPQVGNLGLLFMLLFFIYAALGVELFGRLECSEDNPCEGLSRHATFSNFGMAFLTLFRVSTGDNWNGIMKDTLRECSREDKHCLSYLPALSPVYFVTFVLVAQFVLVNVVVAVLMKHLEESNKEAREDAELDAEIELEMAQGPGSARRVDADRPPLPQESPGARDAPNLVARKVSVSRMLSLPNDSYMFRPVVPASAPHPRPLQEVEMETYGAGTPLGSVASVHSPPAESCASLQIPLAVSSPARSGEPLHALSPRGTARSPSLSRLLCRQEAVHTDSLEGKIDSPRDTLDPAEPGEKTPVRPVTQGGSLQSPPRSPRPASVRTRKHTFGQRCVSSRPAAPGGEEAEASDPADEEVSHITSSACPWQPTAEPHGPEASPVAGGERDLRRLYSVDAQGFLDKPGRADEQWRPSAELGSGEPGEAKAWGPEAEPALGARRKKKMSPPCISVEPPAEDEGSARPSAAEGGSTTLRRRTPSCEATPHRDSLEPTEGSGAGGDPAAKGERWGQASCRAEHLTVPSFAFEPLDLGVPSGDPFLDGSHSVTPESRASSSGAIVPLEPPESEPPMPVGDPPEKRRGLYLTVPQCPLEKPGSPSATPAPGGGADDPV
row,IC50,Structure (SMILES)
1,> 10 µM,"O=C(c1cccc(S(=O)(=O)Nc2ccc(C(F)(F)F)cc2)c1)N1CCN2CCC[C@@H]2C1 [Example 1, 3-[(8aR)-hexahydropyrrolo[1,2-a]pyrazin-2(1H)-ylcarbonyl]-N-[4-(trifluoromethyl)phenyl]benzenesulfonamide]"
2,7.7 µM,"O=C(c1cccc(S(=O)(=O)Nc2c(F)cccc2F)c1)N1CCN2CCC[C@H]2C1 [Example 4, N-(2,6-difluorophenyl)-3-[(8aS)-hexahydropyrrolo[1,2-a]pyrazin-2(1H)-ylcarbonyl]benzenesulfonamide]"
3,1.8 µM,"O=C(c1cccc(S(=O)(=O)Nc2ccc(F)cc2)c1)N1CCN2CCC[C@H]2C1 [Example 5, N-(4-fluorophenyl)-3-[(8aS)-hexahydropyrrolo[1,2-a]pyrazin-2(1H)-ylcarbonyl]benzenesulfonamide]"
4,1.9 µM,"O=C(c1cccc(S(=O)(=O)Nc2cccc(C(F)(F)F)c2)c1)N1CCN2CCC[C@H]2C1 [Example 6, 3-[(8aS)-hexahydropyrrolo[1,2-a]pyrazin-2(1H)-ylcarbonyl]-N-[3-(trifluoromethyl)phenyl]benzenesulfonamide]"
5,6.5 µM,"O=C(c1cccc(S(=O)(=O)Nc2cccc(F)c2)c1)N1CCN2CCC[C@@H]2C1 [Example 7, N-(3-fluorophenyl)-3-[(8aR)-hexahydropyrrolo[1,2-a]pyrazin-2(1H)-ylcarbonyl]benzenesulfonamide]"
6,2.1 µM,"O=C(c1cccc(S(=O)(=O)Nc2ccc(C(F)(F)F)cc2)c1)N1CCN2CCC[C@H]2C1 [Example 8, 3-[(8aS)-hexahydropyrrolo[1,2-a]pyrazin-2(1H)-ylcarbonyl]-N-[4-(trifluoromethyl)phenyl]benzenesulfonamide]"
7,7.3 µM,"O=C(c1cccc(S(=O)(=O)Nc2ccccc2Cl)c1)N1CCN2CCC[C@@H]2C1 [Example 9, N-(2-chlorophenyl)-3-[(8aR)-hexahydropyrrolo[1,2-a]pyrazin-2(1H)-ylcarbonyl]benzenesulfonamide]"
8,1.5 µM,"O=C(c1cccc(S(=O)(=O)Nc2ccccc2Cl)c1)N1CCN2CCC[C@H]2C1 [Example 10, N-(2-chlorophenyl)-3-[(8aS)-hexahydropyrrolo[1,2-a]pyrazin-2(1H)-ylcarbonyl]benzenesulfonamide]"
9,6.6 µM,"O=C(c1cccc(S(=O)(=O)Nc2cccc(F)c2F)c1)N1CCN2CCC[C@H]2C1 [Example 11, N-(2,3-difluorophenyl)-3-[(8aS)-hexahydropyrrolo[1,2-a]pyrazin-2(1H)-ylcarbonyl]benzenesulfonamide]"
10,4.7 µM,"O=C(c1cccc(S(=O)(=O)Nc2cc(F)ccc2F)c1)N1CCN2CCC[C@H]2C1 [Example 12, N-(2,5-difluorophenyl)-3-[(8aS)-hexahydropyrrolo[1,2-a]pyrazin-2(1H)-ylcarbonyl]benzenesulfonamide]"
11,3.7 µM,"O=C(c1cccc(S(=O)(=O)Nc2cccc(F)c2F)c1)N1CCN2CCC[C@@H]2C1 [Example 14, N-(2,3-difluorophenyl)-3-[(8aR)-hexahydropyrrolo[1,2-a]pyrazin-2(1H)-ylcarbonyl]benzenesulfonamide]"
12,> 10 µM,"O=C(c1cccc(S(=O)(=O)Nc2cc(F)ccc2F)c1)N1CCN2CCC[C@@H]2C1 [Example 15, N-(2,5-difluorophenyl)-3-[(8aR)-hexahydropyrrolo[1,2-a]pyrazin-2(1H)-ylcarbonyl]benzenesulfonamide]"
13,6 µM,"O=C(c1cccc(S(=O)(=O)Nc2ccc(F)cc2F)c1)N1CCN2CCC[C@H]2C1 [Example 16, N-(2,4-difluorophenyl)-3-[(8aS)-hexahydropyrrolo[1,2-a]pyrazin-2(1H)-ylcarbonyl]benzenesulfonamide]"
14,> 10 µM,"O=C(c1cccc(S(=O)(=O)Nc2ccccc2F)c1)N1CCN2CCC[C@H]2C1 [Example 17, N-(2-fluorophenyl)-3-[(8aS)-hexahydropyrrolo[1,2-a]pyrazin-2(1H)-ylcarbonyl]benzenesulfonamide]"
